Experimental data as given in ChEMBL document CHEMBL4616724, “Topoisomerase Inhibitors Addressing Fluoroquinolone Resistance in Gram-Negative Bacteria” (J Med Chem, 2020).
pIC50: −log10 of the molar value. Values after ≈ are worked out from the molar mass of the structure shown. One block for each compound: values may come before it.

Assays:
[1] = tested on: Escherichia coli; assay: Antibacterial activity against wild type Escherichia coli ATCC 25922 at pH 7.4 by CLSI-based broth microdilution assay; assay type: functional
[2] = tested on: Pseudomonas aeruginosa; assay: Antibacterial activity against wild type Pseudomonas aeruginosa PAO1 K767 by CLSI-based broth microdilution assay; assay type: functional
[3] = Solubility of the compound in pH 7 PBS incubated for 24 hrs under gently shaking condition by UPLC/UV/CLND/MS analysis; assay type: physicochemical; conditions: PBS, pH 7
[4] = n-Octanol-PBS buffer partition coefficient, log D of the compound at pH 7.4 after overnight incubation by LC/UV/qTOF analysis; assay type: physicochemical
[5] = tested on: Klebsiella pneumoniae; assay: Antibacterial activity against wild type Klebsiella pneumoniae ATCC 43816 by CLSI-based broth microdilution assay; assay type: functional
[6] = tested on: Pseudomonas aeruginosa; assay: Antibacterial activity against Pseudomonas aeruginosa K1542/K767 harboring MexB/MexXY deletion mutant by CLSI-based broth microdilution assay; assay type: functional
[7] = tested on: Pseudomonas aeruginosa; assay: Antibacterial activity against Pseudomonas aeruginosa NB52023 harboring gyrA T83I mutant/ParC S87L mutant by CLSI-based broth microdilution assay; assay type: functional
[8] = tested on: Escherichia coli; assay: Antibacterial activity against Escherichia coli BW25113/JW0451-2 harboring AcrB deletion mutant by CLSI-based broth microdilution assay; assay type: functional
[9] = Protein binding in CD1 mouse plasma at 10 uM incubated for 4 hrs under shaking condition by LC-MS/MS analysis; assay type: ADME, cell-free; conditions: read-out: PPB (converted)
[10] = Protein binding in Sprague-Dawley rat plasma at 10 uM incubated for 4 hrs under shaking condition by LC-MS/MS analysis; assay type: ADME, cell-free; conditions: read-out: PPB (converted)
[11] = Protein binding in pooled human plasma at 10 uM incubated for 4 hrs under shaking condition by LC-MS/MS analysis; assay type: ADME, cell-free; conditions: read-out: PPB (converted)
[12] = molecular target: Voltage-gated inwardly rectifying potassium channel KCNH2 (Homo sapiens, UniProt Q12809); assay: Inhibition of human ERG expressed in CHOK1 cells by QPatch automated patch-clamp assay; assay type: cell-based, CHO-K1
[13] = Efflux ratio of apparent permeability in human Caco2 cells at 10 uM after 2 hrs by LC-MS/MS analysis; assay type: ADME, cell-based; conditions: Caco-2
[14] = Intrinsic clearance in rat liver microsomes at 1 uM in presence of NADPH and measured up to 30 mins by LC-MS/MS analysis; assay type: ADME, Microsome; conditions: read-out: CLH
[15] = Intrinsic clearance in human liver microsomes at 1 uM in presence of NADPH and measured up to 30 mins by LC-MS/MS analysis; assay type: ADME, Microsome; conditions: read-out: CLH
[16] = tested on: Escherichia coli; assay: Antibacterial activity against wild type Escherichia coli ATCC 25922 at pH 5.8 by CLSI-based broth microdilution assay; assay type: functional
[17] = tested on: Escherichia coli; assay: Ratio of MIC for antibacterial activity against wild type Escherichia coli ATCC 25922 at pH 5.8 to MIC for antibacterial activity against wild type Escherichia coli ATCC 25922 at pH 7.4; assay type: functional
[18] = Selectivity ratio of MIC for wild type Escherichia coli ATCC 25922 to MIC for Escherichia coli BW25113/JW0451-2 harboring AcrB deletion mutant; assay type: functional
[19] = Inhibition of recombinant full-length C-terminal His6-tagged Escherichia coli DNA topoisomerase 4 subunit ParC/ParE using kinetoplast DNA as substrate preincubated for 30 mins followed by substrate addition and measured after 1 hr in presence of ATP by size exclusion chromatography
[20] = Dose normalized AUC in rat at 10 mg/kg, po measured up to 24 hrs by LC-MS/MS analysis; assay type: ADME, organism-based; conditions: in vivo
[21] = Dose normalized Cmax in rat at 10 mg/kg, po measured up to 24 hrs by LC-MS/MS analysis; assay type: ADME, organism-based; conditions: in vivo
[22] = Tmax in rat at 10 mg/kg, po measured up to 24 hrs by LC-MS/MS analysis; assay type: ADME, organism-based; conditions: in vivo
[23] = tested on: Escherichia coli; assay: Bacteriostatic activity against Escherichia coli ATCC 25922 infected in mouse model of neutropenic thigh infection assessed as static dose compound administered subcutaneously 2 hrs post infection and measured after 24 hrs by serial dilution method; assay type: functional
[24] = in vivo; conditions: mouse, po, 10 mg/kg

Voltage-gated inwardly rectifying potassium channel KCNH2, sequence (Q12809 whole entry): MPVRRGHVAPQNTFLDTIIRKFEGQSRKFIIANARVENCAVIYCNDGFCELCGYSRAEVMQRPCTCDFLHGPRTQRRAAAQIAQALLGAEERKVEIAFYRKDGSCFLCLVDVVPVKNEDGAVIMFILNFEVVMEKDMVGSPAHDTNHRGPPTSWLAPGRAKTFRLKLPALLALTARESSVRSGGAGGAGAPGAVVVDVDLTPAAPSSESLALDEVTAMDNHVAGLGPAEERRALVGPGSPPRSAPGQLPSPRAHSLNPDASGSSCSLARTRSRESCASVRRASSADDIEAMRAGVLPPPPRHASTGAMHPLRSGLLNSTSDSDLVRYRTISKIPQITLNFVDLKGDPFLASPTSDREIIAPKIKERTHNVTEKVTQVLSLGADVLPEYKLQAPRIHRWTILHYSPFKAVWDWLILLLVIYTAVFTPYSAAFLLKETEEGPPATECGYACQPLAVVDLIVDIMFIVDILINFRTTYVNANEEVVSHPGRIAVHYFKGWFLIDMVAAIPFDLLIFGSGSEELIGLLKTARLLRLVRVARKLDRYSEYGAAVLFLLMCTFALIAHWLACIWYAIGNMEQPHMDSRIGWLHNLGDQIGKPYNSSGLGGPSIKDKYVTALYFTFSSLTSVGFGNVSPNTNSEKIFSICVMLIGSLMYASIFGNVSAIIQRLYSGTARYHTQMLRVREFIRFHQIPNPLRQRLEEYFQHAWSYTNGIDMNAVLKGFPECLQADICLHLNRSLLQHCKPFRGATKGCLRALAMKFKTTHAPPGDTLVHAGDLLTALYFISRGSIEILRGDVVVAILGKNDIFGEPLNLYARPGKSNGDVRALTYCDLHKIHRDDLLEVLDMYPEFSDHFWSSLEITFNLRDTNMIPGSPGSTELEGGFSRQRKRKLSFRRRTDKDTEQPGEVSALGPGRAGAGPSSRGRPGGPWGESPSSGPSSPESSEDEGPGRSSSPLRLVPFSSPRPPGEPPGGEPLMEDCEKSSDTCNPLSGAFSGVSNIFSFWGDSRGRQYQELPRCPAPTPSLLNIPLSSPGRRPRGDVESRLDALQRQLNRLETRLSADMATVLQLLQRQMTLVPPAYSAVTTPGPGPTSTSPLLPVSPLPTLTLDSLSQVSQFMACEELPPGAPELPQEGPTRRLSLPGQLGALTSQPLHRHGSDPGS

SMILES: Cc1c(N2CC[C@@H]([C@H](C)N)C2)c(F)cc2c(CN)cc(=O)n(C3CC3)c12
MIC [1]: 1 µg/mL (≈ 2.79 µM) | MIC [2]: 2 µg/mL (≈ 5.58 µM) | solubility at 24 h [3]: > 555 µg/mL | logD [4]: -0.29 | MIC [5]: 4 µg/mL (≈ 11.2 µM) | MIC [6]: 0.5 µg/mL (≈ 1.39 µM) | MIC [7]: 2 µg/mL (≈ 5.58 µM) | MIC [8]: 0.06 µg/mL (≈ 0.167 µM) | fraction unbound at 4 h, 10 µM [9]: 0.44 | fraction unbound at 4 h, 10 µM [10]: 0.82 | fraction unbound at 4 h, 10 µM [11]: 0.83 | pIC50 [12]: < 3.52 | efflux ratio at 2 h, 10 µM [13]: 18 | microsomal CLint at 1 µM [14]: < 7.7 µL/min/mg | microsomal CLint at 1 µM [15]: 14 µL/min/mg | MIC [16]: > 32 µg/mL | Ratio [17]: >=64 | Selectivity ratio [18]: 16

pIC50 [19]: 5.57 | AUC/dose [20]: 0.29 µM·h/mg/kg | Cmax/dose [21]: 0.14 µM/mg/kg | Tmax [22]: 30 min | Tmax at 24 h [24]: 15 min
SMILES: O=C(O)c1cn(C2CC2)c2cc(N3CCNCC3)c(F)cc2c1=O [CIPROFLOXACIN]
Activity [23]: 6.4 mg/kg/day
